Columns and labels:
Assay in all cases: relative viability (nuclei count vs DMSO), 5 days (fraction); higher = more cells survive
[1] = compound: COc1cc(-c2nn([C@H]3CC[C@H](N4CCN(C(C)=O)CC4)CC3)c3ncnc(N)c23)ccc1NC(=O)c1cc2ccccc2n1C + COc1cccc2cc(-c3nc([C@H]4CC[C@H](C(=O)O)CC4)n4ncnc(N)c34)[nH]c12 [OSI-027] (partner 0.5 µM)
Method in brief: (§1)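 A single step with final 0.05% Triton X-100, 1% formaldehyde and 1 ug/ml Hoechst fixed the cells and stained nuclei 5 days after treatment. Lung cancer cell lines in 1536-well plates had been treated by pin tool the day after seeding with one drug alone or a fixed anchor-drug dose plus five library-drug doses (not always all listed) in √10 steps, and nuclei were counted on 4× images. Relative viability is the ratio of nuclei in treated wells to nuclei in vehicle wells, taken as the median of duplicate plates.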

Midostaurin + Phenformin = compound: CO[C@@H]1[C@H](N(C)C(=O)c2ccccc2)C[C@H]2O[C@]1(C)n1c3ccccc3c3c4c(c5c6ccccc6n2c5c31)C(=O)NC4 [Midostaurin] + N=C(N)NC(=N)NCCc1ccccc1 [Phenformin] (partner 250 µM)
Method in brief: as §1

[2] = compound: COc1cc(-c2nn([C@H]3CC[C@H](N4CCN(C(C)=O)CC4)CC3)c3ncnc(N)c23)ccc1NC(=O)c1cc2ccccc2n1C + CCNC(=O)c1noc(-c2cc(C(C)C)c(O)cc2O)c1-c1ccc(CN2CCOCC2)cc1 [Luminespib] (partner 0.01 µM)
Method in brief: as §1

[3] = compound: COc1cc(-c2nn([C@H]3CC[C@H](N4CCN(C(C)=O)CC4)CC3)c3ncnc(N)c23)ccc1NC(=O)c1cc2ccccc2n1C + CS(=O)(=O)N1CCN(Cc2cc3nc(-c4cccc5[nH]ncc45)nc(N4CCOCC4)c3s2)CC1 [Pictilisib] (partner 1 µM)
Method in brief: as §1

Midostaurin + Luminespib = compound: CO[C@@H]1[C@H](N(C)C(=O)c2ccccc2)C[C@H]2O[C@]1(C)n1c3ccccc3c3c4c(c5c6ccccc6n2c5c31)C(=O)NC4 [Midostaurin] + CCNC(=O)c1noc(-c2cc(C(C)C)c(O)cc2O)c1-c1ccc(CN2CCOCC2)cc1 [Luminespib] (partner 0.01 µM)
Method in brief: as §1

Cell Line: UMC-11
- relative viability ([1]; first compound 0.0128 µM): 0.531
- relative viability ([1]; first compound 0.04048 µM): 0.463
- relative viability ([1]; first compound 0.128 µM): 0.474
- relative viability ([1]; first compound 1.28 µM): 0.414
- relative viability (Midostaurin + Phenformin; first compound 0.01 µM): 0.3
- relative viability (Midostaurin + Phenformin; first compound 0.03162 µM): 0.328
- relative viability (Midostaurin + Phenformin; first compound 0.1 µM): 0.32
- relative viability (Midostaurin + Phenformin; first compound 0.3162 µM): 0.281
- relative viability ([2]; first compound 0.0128 µM): 0.928
- relative viability ([2]; first compound 0.04048 µM): 0.956
- relative viability ([2]; first compound 0.128 µM): 0.922
- relative viability ([2]; first compound 1.28 µM): 0.818
- relative viability ([3]; first compound 0.0128 µM): 0.89
- relative viability ([3]; first compound 0.04048 µM): 0.788
- relative viability ([3]; first compound 0.128 µM): 0.767
- relative viability ([3]; first compound 1.28 µM): 0.71
- relative viability (Midostaurin + Luminespib; first compound 0.01 µM): 1.02
- relative viability (Midostaurin + Luminespib; first compound 0.03162 µM): 0.849
- relative viability (Midostaurin + Luminespib; first compound 0.1 µM): 0.932
- relative viability (Midostaurin + Luminespib; first compound 0.3162 µM): 0.463

Reference: the supplement of paper PMC10307832
